The subject of the assay is P388 leukemia ip, CD2F1 mice, survival T/C. Put plainly: NCI In Vivo Anticancer Drug Screen. Data for tumor model P388 Leukemia (intraperitoneal) in CD2F1 (CDF1) mice. The following applies: endpoint: median survival time, higher = longer survival. In a few lines:
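Mice carrying the transplanted tumor received test compound or vehicle. Survival was recorded in each group, and the value is the treated-group measurement divided by that of the vehicle-treated control group.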

Setting [1] is: dose: 50.0 mg/kg/injection, schedule: Q01DX005 (ip), vehicle: saline with Tween-80.
Where [2] appears, read: dose: 100.0 mg/kg/injection, schedule: Q01DX005 (ip), vehicle: saline with Tween-80.
Where [3] appears, read: dose: 200.0 mg/kg/injection, schedule: Q01DX005 (ip), vehicle: saline with Tween-80.
Setting [4] is: dose: 100.0 mg/kg/injection, schedule: Q04DX003 (ip), vehicle: saline.
[5] abbreviates: dose: 200.0 mg/kg/injection, schedule: Q04DX003 (ip), vehicle: saline.
[6] abbreviates: dose: 50.0 mg/kg/injection, schedule: Q01DX009 (ip), vehicle: Klucel (hydroxypropylcellulose) (HPC).
[7] abbreviates: dose: 100.0 mg/kg/injection, schedule: Q01DX009 (ip), vehicle: Klucel (hydroxypropylcellulose) (HPC).
Setting [8] is: dose: 100.0 mg/kg/injection, schedule: Q01DX009 (ip), vehicle: saline with Tween-80.
[9] abbreviates: dose: 200.0 mg/kg/injection, schedule: Q01DX009 (ip), vehicle: saline with Tween-80.
Setting [10] is: dose: 50.0 mg/kg/injection, schedule: Q01DX005 (ip), vehicle: Klucel (hydroxypropylcellulose) (HPC).
[11] abbreviates: dose: 100.0 mg/kg/injection, schedule: Q01DX005 (ip), vehicle: Klucel (hydroxypropylcellulose) (HPC).

Values joined by “and” are separate entries in the source; they are usually repeats but may differ in a detail not shown here. Equal values may be shown once. Toxic doses and inconclusive results are not listed.

Take `Clc1nc2cc3c(cc2n2cccc12)oc1ccccc13`: the T/C is 108 % of control (dose: 25.0 mg/kg/injection, schedule: Q01DX005 (ip), vehicle: saline with Tween-80); 110 % of control under setting [1]; 110 % of control under setting [2]; 110 % of control under setting [3].
Turning to `COC1/C=C\C=C(/C)C(=O)NC2=CC(=O)C(NC3CC3)=C(CC(C)CC(OC)C(O)C(C)/C=C(/C)C1OC(N)=O)C2=O` (centres undefined), the T/C is 107 % of control (dose: 12.5 mg/kg/injection, schedule: Q04DX002 (ip), vehicle: saline with Tween-80); 108 % of control (dose: 18.75 mg/kg/injection, schedule: Q04DX002 (ip), vehicle: saline with Tween-80); 107 % of control and 113 % of control (dose: 25.0 mg/kg/injection, schedule: Q04DX002 (ip), vehicle: saline with Tween-80); 108 % of control (dose: 37.5 mg/kg/injection, schedule: Q04DX002 (ip), vehicle: saline with Tween-80); 111 % of control and 113 % of control (dose: 50.0 mg/kg/injection, schedule: Q04DX002 (ip), vehicle: saline with Tween-80); 117 % of control (dose: 75.0 mg/kg/injection, schedule: Q04DX002 (ip), vehicle: saline with Tween-80). For the same molecule, the T/C (dose: 100.0 mg/kg/injection, schedule: Q04DX002 (ip), vehicle: saline with Tween-80) is 120 % of control and 88 % of control.
In the case of `CC(C)(C)C1=CC(N2CCOCC2)(C(C)(C)C)C=C(C(C)(C)C)C1=O`, the T/C under setting [1] is 94 % of control, the T/C under setting [2] was 103 % of control and the T/C under setting [3] is 94 % of control.
For `Cc1ccc(N2CCN(CCCC3(c4ccccc4)OCCO3)CC2C)cc1Cl` (centres undefined), the T/C reads like this: (dose: 50.0 mg/kg/injection, schedule: Q04DX003 (ip), vehicle: saline) 106 % of control and 97 % of control; (dose: 100.0 mg/kg/injection, schedule: Q04DX003 (ip), vehicle: saline with Tween-80) 107 % of control; under setting [4], 100 % of control and 95 % of control; (dose: 200.0 mg/kg/injection, schedule: Q04DX003 (ip), vehicle: saline with Tween-80) 117 % of control; under setting [5], 107 % of control and 97 % of control; (dose: 400.0 mg/kg/injection, schedule: Q04DX003 (ip), vehicle: saline) 107 % of control and 97 % of control.
Take `Cc1ccc2nc(N)nnc2c1`: the T/C is 104 % of control under setting [6] and 100 % of control under setting [7].
Regarding `Cc1c[n+]([O-])cc(=O)[nH]1`, the T/C under setting [8] was 100 % of control; the T/C under setting [9] was 100 % of control; the T/C (dose: 400.0 mg/kg/injection, schedule: Q01DX009 (ip), vehicle: saline with Tween-80) was 100 % of control.
Consider `C1CC2CC3CCCCN3COC2C1` (centres undefined), for which the T/C runs as follows: under setting [4], 102 % of control; under setting [5], 118 % of control.
For `COc1cccc2c1C(=O)c1c(O)c3c(c(O)c1C2=O)CC(NO)CC3OC1CC(NC(=O)C(F)(F)F)C(O)C(C)O1` (centres undefined), the T/C is 103 % of control and 101 % of control (dose: 1.56 mg/kg/injection, schedule: Q01DX009 (ip), vehicle: other); 104 % of control and 106 % of control (dose: 3.13 mg/kg/injection, schedule: Q01DX009 (ip), vehicle: other); 108 % of control and 110 % of control (dose: 6.25 mg/kg/injection, schedule: Q01DX009 (ip), vehicle: other); 113 % of control (dose: 12.5 mg/kg/injection, schedule: Q01DX009 (ip), vehicle: other); 116 % of control and 107 % of control (dose: 25.0 mg/kg/injection, schedule: Q01DX009 (ip), vehicle: other).
Regarding `CCC(c1ccc(OC)cc1)C(NCC(=O)N/N=C1/C=C2CC[C@H]3[C@@H]4CC[C@H](O)[C@@]4(C)CC[C@@H]3[C@@]2(C)CC1)c1ccc(OC)cc1` (some centres undefined), the T/C is 100 % of control (dose: 100.0 mg/kg/injection, schedule: Q01DX001 (ip), vehicle: saline with Tween-80); 110 % of control (dose: 200.0 mg/kg/injection, schedule: Q01DX001 (ip), vehicle: saline with Tween-80); 107 % of control (dose: 400.0 mg/kg/injection, schedule: Q01DX001 (ip), vehicle: saline with Tween-80).
For the molecule `O=C1NC2(CCCCC2)C(=O)N1CCCCN(CCCl)CCCl`, the T/C is 122 % of control (dose: 1.5 mg/kg/injection, schedule: Q01DX005 (ip), vehicle: saline); 119 % of control (dose: 6.0 mg/kg/injection, schedule: Q01DX005 (ip), vehicle: saline); 165 % of control (dose: 24.0 mg/kg/injection, schedule: Q01DX005 (ip), vehicle: saline); 160 % of control (dose: 50.0 mg/kg/injection, schedule: Q01DX005 (ip), vehicle: saline); 187 % of control (dose: 100.0 mg/kg/injection, schedule: Q01DX005 (ip), vehicle: saline).
For `COc1ccc(C(=O)CCN(C)C)c(OC)c1`, the T/C by setting is: (dose: 15.0 mg/kg/injection, schedule: Q01DX005 (ip), vehicle: saline) 102 % of control; (dose: 30.0 mg/kg/injection, schedule: Q01DX005 (ip), vehicle: saline) 94 % of control; (dose: 60.0 mg/kg/injection, schedule: Q01DX005 (ip), vehicle: saline) 106 % of control and 109 % of control.
Consider `CC1(C)CC(Nc2ccccc2)=CC(=Nc2ccccc2)S1`, for which the T/C by setting is: (dose: 60.0 mg/kg/injection, schedule: Q01DX005 (ip), vehicle: Klucel (hydroxypropylcellulose) (HPC)) 110 % of control; (dose: 120.0 mg/kg/injection, schedule: Q01DX005 (ip), vehicle: Klucel (hydroxypropylcellulose) (HPC)) 92 % of control; (dose: 240.0 mg/kg/injection, schedule: Q01DX005 (ip), vehicle: Klucel (hydroxypropylcellulose) (HPC)) 89 % of control.
`C#CCn1c(=O)c2cc3ccccc3nc2n(CC#C)c1=O`: the T/C under setting [10] is 96 % of control and the T/C under setting [11] was 93 % of control.
Take `CC1(C)N=C(N)N=C(N)N1c1cc(C(F)(F)F)cc(C(F)(F)F)c1`: the T/C was 99 % of control (dose: 7.5 mg/kg/injection, schedule: Q01DX005 (ip), vehicle: Klucel (hydroxypropylcellulose) (HPC)); 94 % of control (dose: 15.0 mg/kg/injection, schedule: Q01DX005 (ip), vehicle: Klucel (hydroxypropylcellulose) (HPC)); 105 % of control (dose: 30.0 mg/kg/injection, schedule: Q01DX005 (ip), vehicle: Klucel (hydroxypropylcellulose) (HPC)).
Take `O=C(O)Cn1nc([O-])[n+]2ccccc12`: the T/C (dose: 50.0 mg/kg/injection, schedule: Q01DX009 (ip), vehicle: saline with Tween-80) is 100 % of control; the T/C under setting [8] is 94 % of control; the T/C under setting [9] is 110 % of control.
For `CC(C)CC(N)C(=O)NC(Cc1c[nH]c2ccccc12)C(N)=O` (centres undefined), the T/C is 93 % of control (dose: 50.0 mg/kg/injection, schedule: Q01DX009 (ip), vehicle: saline); 98 % of control (dose: 100.0 mg/kg/injection, schedule: Q01DX009 (ip), vehicle: saline); 99 % of control (dose: 200.0 mg/kg/injection, schedule: Q01DX009 (ip), vehicle: saline).
Take `Cc1cc(N=Cc2c(CO)cnc(C)c2O)c(N=Cc2c(CO)cnc(C)c2O)cc1C`: the T/C is, setting by setting: under setting [10], 98 % of control; (dose: 60.0 mg/kg/injection, schedule: Q01DX005 (ip), vehicle: saline with Tween-80) 93 % of control; under setting [11], 96 % of control; (dose: 120.0 mg/kg/injection, schedule: Q01DX005 (ip), vehicle: saline with Tween-80) 104 % of control; (dose: 200.0 mg/kg/injection, schedule: Q01DX005 (ip), vehicle: Klucel (hydroxypropylcellulose) (HPC)) 91 % of control; (dose: 240.0 mg/kg/injection, schedule: Q01DX005 (ip), vehicle: saline with Tween-80) 94 % of control.
In the case of `Cc1ccc(C)c(NC(=O)Nc2ccc(C(=O)O)c(O)c2)c1`, the T/C by setting is: under setting [6], 101 % of control; under setting [7], 101 % of control; (dose: 200.0 mg/kg/injection, schedule: Q01DX009 (ip), vehicle: Klucel (hydroxypropylcellulose) (HPC)) 114 % of control.
As for `C=CC[S+]1CCSC1C(=O)OCC` (centres undefined), the T/C by setting is: (dose: 100.0 mg/kg/injection, schedule: Q01DX001 (ip), vehicle: saline) 95 % of control; (dose: 200.0 mg/kg/injection, schedule: Q01DX001 (ip), vehicle: saline) 112 % of control; (dose: 400.0 mg/kg/injection, schedule: Q01DX001 (ip), vehicle: saline) 91 % of control.

The values above are taken from PubChem BioAssay AID330 (DTP/NCI, 2004).
